Read-outs that look alike come from different tables or passages of the source.
Test system: Gli1-mediated transcription
Experiment: Gli1-mediated transcriptional luciferase reporter assay
Type: cell-based
Procedure: Gli1-mediated transcriptional luciferase reporter assay was performed using Shh-LIGHT2 cells in order to evaluate the effects on activation and inhibition of Gli1-mediated transcription by the compounds of the disclosure. Brief assay procedure is provided below. […] Shh-LIGHT2 cells were harvested from about 80% confluent 10-cm dish using 0.25% Trypsin-EDTA solution. Medium was removed, and cells were washed with 5 mL DPBS and aspirated. Then, 1 mL 0.25% Trypsin-EDTA solution was added to a 10-cm dish. The dish was placed in the incubator for 1-3 minutes, or until cells have detached. 3 mL of cell growth medium (DMEM, 10% FBS, 1% PenStrep, 1% sodium pyruvate, and 1% GlutaMax) was added to the 10-cm dish, and the contents were transferred to a conical tube. […] The cell assay plate was removed from incubator after cells reached confluency. The culture medium was then manually removed from the cell plates, and the plates were centrifuged at 200 rpm for 30 seconds. […] After 30 min incubation of antagonist, cells were stimulated with agonist (purmorphamine, 5 μL, 1.5 μM final), then incubate for 24 h at 37° C./5% CO2. […] Luciferase assay: After incubation, the cell assay plate was allowed to acclimate to room temperature. Then, 20 μL of Duo-Glo® Luciferase Reagent (Promega) was added to each well of cell assay plate. The plate was briefly spun down, mixed, and incubated for 30 minutes at room temperature. The cell plate was read using luminometer for firefly luminescence activity. Then, 20 μL of Duo-Glo® Step&Glo® Reagent (Promega) was added to each well of cell assay plate. The plate was briefly spun down, mixed, and incubated for 30 minutes at room temperature. The cell plate was read using luminometer for Renilla luminescence activity. Ratio of firefly: Renilla luminescence was calculated for each well. The compound well ratio was normalized to the ratio from a control well.

[1] = Shh-LIGHT2 cells, antagonist mode, purmorphamine 1.5 μM stimulation, 24 h, firefly luminescence, read-out: Gli1 IC50 firefly
[2] = Shh-LIGHT2 cells, antagonist mode, purmorphamine 1.5 μM stimulation, 24 h, ratio of firefly:Renilla luminescence, read-out: Gli1 IC50 firefly:Renilla ratio

| Compound | IC50 [1] [nM] | IC50 [2] [nM] | IC50 (Shh Light2, 24 h, read-out: Gli1 IC50 firefly) [nM] | IC50 (Shh Light2, 24 h, read-out: Gli1 IC50 firefly:Renilla ratio) [nM] |
| --- | --- | --- | --- | --- |
| Clc1ccccc1-c1nc2c([nH]1)CN(C1Cc3ccccc3C1)CC2 [Example 2, 2-(2-chlorophenyl)-5-(2,3-dihydro-1H-inden-2-yl)-4,5,6,7-tetrahydro-3H-imidazo[4,5-c]pyridine] |  |  | 1000 to 50000 | 1000 to 50000 |
| Cn1c(-c2ccccc2Cl)nc2c1CC(N1CCc3cccc(Cl)c3C1)CC2 (stereo not drawn) [Example 187, 8-chloro-2-(2-(2-chlorophenyl)-1-methyl-4,5,6,7-tetrahydro-1H-benzo[d]imidazol-6-yl)-1,2,3,4-tetrahydroisoquinoline] | < 100 | < 100 |  |  |
| Clc1ccc2c(c1)CC(N1CCc3nc(-c4ccccc4Br)[nH]c3C1)CC2 (stereo not drawn) [Example 28, 2-(2-bromophenyl)-5-(7-chloro-1,2,3,4-tetrahydronaphthalen-2-yl)-4,5,6,7-tetrahydro-3H-imidazo[4,5-c]pyridine] | 100 to 490 | 100 to 490 |  |  |
| Fc1ccccc1-c1nc2c([nH]1)CN(C1CCc3ccc(Cl)cc3C1)CC2 (stereo not drawn) [Example 6, 5-(7-chloro-1,2,3,4-tetrahydronaphthalen-2-yl)-2-(2-fluorophenyl)-4,5,6,7-tetrahydro-3H-imidazo[4,5-c]pyridine] | 1000 to 50000 | 1000 to 50000 |  |  |
| COc1ccc2c(c1)CCC(N1CCc3nc(-c4ccccc4F)[nH]c3C1)C2 (stereo not drawn) [Example 7, 2-(2-fluorophenyl)-5-(6-methoxy-1,2,3,4-tetrahydronaphthalen-2-yl)-4,5,6,7-tetrahydro-3H-imidazo[4,5-c]pyridine] | 1000 to 50000 | 1000 to 50000 |  |  |
| COc1ccc2c(c1)CC(N1CCc3nc(-c4ccccc4Cl)[nH]c3C1)CC2 (stereo not drawn) [Example 15, 2-(2-chlorophenyl)-5-(7-methoxy-1,2,3,4-tetrahydronaphthalen-2-yl)-4,5,6,7-tetrahydro-3H-imidazo[4,5-c]pyridine] | 100 to 490 | 100 to 490 |  |  |
| Clc1ccccc1-c1nc2c([nH]1)CN(C1CCc3cccc(C4CC4)c3C1)CC2 (stereo not drawn) [Example 36, 2-(2-chlorophenyl)-5-(8-cyclopropyl-1,2,3,4-tetrahydronaphthalen-2-yl)-4,5,6,7-tetrahydro-3H-imidazo[4,5-c]pyridine] | 1000 to 50000 | 500 to 990 |  |  |
| Clc1ccccc1-c1nc2c([nH]1)CN(C1CCc3cccc(Cl)c3C1)CC2 (stereo not drawn) [Example 1, 5-(8-chloro-1,2,3,4-tetrahydronaphthalen-2-yl)-2-(2-chlorophenyl)-4,5,6,7-tetrahydro-3H-imidazo[4,5-c]pyridine] | < 100 | 100 to 490 |  |  |
| Fc1cccc(-c2nc3c([nH]2)CN(C2CCc4ccc(F)cc4C2)CC3)c1 (stereo not drawn) [Example 51, 5-(7-fluoro-1,2,3,4-tetrahydronaphthalen-2-yl)-2-(3-fluorophenyl)-4,5,6,7-tetrahydro-3H-imidazo[4,5-c]pyridine] | 1000 to 50000 | 1000 to 50000 |  |  |
| Cn1c(-c2ccccc2Cl)nc2c1CN(C1CCc3cccc(Cl)c3C1)CC2 (stereo not drawn) [Example 18, 5-(8-chloro-1,2,3,4-tetrahydronaphthalen-2-yl)-2-(2-chlorophenyl)-3-methyl-4,5,6,7-tetrahydro-3H-imidazo[4,5-c]pyridine] | 1000 to 50000 | 1000 to 50000 |  |  |
| Clc1ccccc1-c1nc2c([nH]1)CN(C1Cc3ccccc31)CC2 (stereo not drawn) [Example 43, 5-(bicyclo[4.2.0]octa-1(6),2,4-trien-7-yl)-2-(2-chlorophenyl)-4,5,6,7-tetrahydro-3H-imidazo[4,5-c]pyridine] | > 30000 | 1000 to 50000 |  |  |
| Fc1ccc2c(c1)CC(N1CCc3nc(-c4ccccc4F)[nH]c3C1)CC2 (stereo not drawn) [Example 5, 5-(7-fluoro-1,2,3,4-tetrahydronaphthalen-2-yl)-2-(2-fluorophenyl)-4,5,6,7-tetrahydro-3H-imidazo[4,5-c]pyridine] | 1000 to 50000 | 1000 to 50000 |  |  |

More lines, main results first:

| IC50 [1] [nM] | IC50 [2] [nM] | Compound | IC50 (Shh Light2, 24 h, read-out: Gli1 IC50 firefly) [nM] | IC50 (Shh Light2, 24 h, read-out: Gli1 IC50 firefly:Renilla ratio) [nM] |
| --- | --- | --- | --- | --- |
| < 100 | < 100 | CN1C2=C(CCN([C@@H]3CCc4cccc(Cl)c4C3)C2)NC1c1ccccc1Cl (stereo partly drawn) [Example 18-R, 5-((R)-8-chloro-1,2,3,4-tetrahydronaphthalen-2-yl)-2-(2-chlorophenyl)-3-methyl-2,3,4,5,6,7-hexahydro-1H-imidazo[4,5-c]pyridine] |  |  |
| < 100 | 100 to 490 | Clc1ccccc1-c1nc2c([nH]1)CN(C1CCc3cccc(Br)c3C1)CC2 (stereo not drawn) [Example 26, 5-(8-bromo-1,2,3,4-tetrahydronaphthalen-2-yl)-2-(2-chlorophenyl)-4,5,6,7-tetrahydro-3H-imidazo[4,5-c]pyridine] |  |  |
| 100 to 490 | 100 to 490 | Clc1ccccc1-c1nc2c([nH]1)CN(C1CCc3ccc(C4CC4)cc3C1)CC2 (stereo not drawn) [Example 34, 2-(2-chlorophenyl)-5-(7-cyclopropyl-1,2,3,4-tetrahydronaphthalen-2-yl)-4,5,6,7-tetrahydro-3H-imidazo[4,5-c]pyridine] |  |  |
| 1000 to 50000 | 1000 to 50000 | Clc1cccc2c1CC(N1CCc3nc(-c4ccccn4)[nH]c3C1)CC2 (stereo not drawn) [Example 78, 5-(8-chloro-1,2,3,4-tetrahydronaphthalen-2-yl)-2-(pyridin-2-yl)-4,5,6,7-tetrahydro-3H-imidazo[4,5-c]pyridine] |  |  |
| 1000 to 50000 | 1000 to 50000 | Clc1ccccc1-c1nc2c([nH]1)CN(C1CCc3cc(Br)ccc3C1)CC2 (stereo not drawn) [Example 109, 5-(6-bromo-1,2,3,4-tetrahydronaphthalen-2-yl)-2-(2-chlorophenyl)-4,5,6,7-tetrahydro-3H-imidazo[4,5-c]pyridine] |  |  |
| 1000 to 50000 | 1000 to 50000 | Clc1cc(Cl)c2c(c1)CCC(N1CCc3nc(-c4ccccc4Cl)[nH]c3C1)C2 (stereo not drawn) [Example 25, 2-(2-chlorophenyl)-5-(6,8-dichloro-1,2,3,4-tetrahydronaphthalen-2-yl)-4,5,6,7-tetrahydro-3H-imidazo[4,5-c]pyridine] |  |  |
| < 100 | < 100 | Clc1ccc2c(c1)CC(N1CCc3nc(-c4ccc(C5CC5)cc4Cl)[nH]c3C1)CC2 (stereo not drawn) [Example 37, 5-(7-chloro-1,2,3,4-tetrahydronaphthalen-2-yl)-2-(2-chloro-4-cyclopropylphenyl)-4,5,6,7-tetrahydro-3H-imidazo[4,5-c]pyridine] |  |  |
| < 100 | < 100 | Clc1ccccc1-c1nc2c([nH]1)CC(N1CCc3cccc(Cl)c3C1)CC2 (stereo not drawn) [Example 185, 8-chloro-2-(2-(2-chlorophenyl)-4,5,6,7-tetrahydro-1H-benzo[d]imidazol-6-yl)-1,2,3,4-tetrahydroisoquinoline] |  |  |
| 100 to 490 | 100 to 490 | Clc1ccc2c(c1)CC(N1CCc3nc(-c4ccccc4Cl)[nH]c3C1)C2 (stereo not drawn) [Example 19, 5-(5-chloro-2,3-dihydro-1H-inden-2-yl)-2-(2-chlorophenyl)-4,5,6,7-tetrahydro-3H-imidazo[4,5-c]pyridine] |  |  |
| 500 to 990 | 100 to 490 | Fc1ccc(-c2nc3c([nH]2)CN(C2CCc4ccc(Cl)cc4C2)CC3)c(Cl)c1 (stereo not drawn) [Example 22, 5-(7-chloro-1,2,3,4-tetrahydronaphthalen-2-yl)-2-(2-chloro-4-fluorophenyl)-4,5,6,7-tetrahydro-3H-imidazo[4,5-c]pyridine] |  |  |
| 100 to 490 | 100 to 490 | Cn1c(-c2ccc(C3CC3)cc2Cl)nc2c1CCN(C1CCc3ccc(Cl)cc3C1)C2 (stereo not drawn) [Example 164, 5-(7-chloro-1,2,3,4-tetrahydronaphthalen-2-yl)-2-(2-chloro-4-cyclopropylphenyl)-1-methyl-4,5,6,7-tetrahydro-1H-imidazo[4,5-c]pyridine] |  |  |
| < 100 | 100 to 490 | COc1cccc2c1CC(N1CCc3nc(-c4ccccc4Cl)[nH]c3C1)CC2 (stereo not drawn) [Example 16, 2-(2-chlorophenyl)-5-(8-methoxy-1,2,3,4-tetrahydronaphthalen-2-yl)-4,5,6,7-tetrahydro-3H-imidazo[4,5-c]pyridine] |  |  |
| 500 to 990 | 1000 to 50000 | Clc1cnccc1-c1nc2c([nH]1)CN(C1CCc3cccc(Cl)c3C1)CC2 (stereo not drawn) [Example 17, 5-(8-chloro-1,2,3,4-tetrahydronaphthalen-2-yl)-2-(3-chloropyridin-4-yl)-4,5,6,7-tetrahydro-3H-imidazo[4,5-c]pyridine] |  |  |
| 100 to 490 | < 100 | Clc1ccccc1-c1nc2c([nH]1)C[C@@H](N1CCc3cccc(Cl)c3C1)CC2 [Example 185-S, (S)-8-chloro-2-(2-(2-chlorophenyl)-4,5,6,7-tetrahydro-1H-benzo[d]imidazol-6-yl)-1,2,3,4-tetrahydroisoquinoline] |  |  |
| 100 to 490 | 100 to 490 | CN1C2=C(CCN([C@H]3CCc4cccc(Cl)c4C3)C2)NC1c1ccccc1Cl (stereo partly drawn) [Example 18-S, 5-((S)-8-chloro-1,2,3,4-tetrahydronaphthalen-2-yl)-2-(2-chlorophenyl)-3-methyl-2,3,4,5,6,7-hexahydro-1H-imidazo[4,5-c]pyridine] |  |  |

Reference: patent US12209092B2, “Inhibitors of GLI1 as therapeutic agents” (NEW YORK UNIVERSITY, priority 2018, dated 2025)
